Data on two compounds can be found in patent publication US20230416785A1, “NUCLEASE AND APPLICATION THEREOF” (CRISP-HR Therapeutics, Inc., priority 2020, published 2023).

Series [1] has as its system A549 cells. The experiment in a line: Pifithrin-α treatment of A549 cells transfected with Cas9 or Cas9-HR, resazurin viability. In kind it is cell-based, human. The protocol: (§1) 20 μL of 0.15 mg/mL Resazurin solution was added to cells either plated in 96 well plates for all cell lines, which were then incubated for ˜4 hours at 37° C. Cellular toxicity was quantified using a Tecan SpectraFlour Plus plate reader (Tecan) using a 535/595 filter set. Raw data was then normalized to the mean of the untransfected controls and plotted as described.
Background: Alamar Blue is a resazurin reagent that responds to reducing activity.

The subject of series [2] is A549 cells. The series can be described thus: Cellular toxicity / viability of transfected A549 cells (resazurin assay). It is filed as cell-based. The protocol: A549 cells were chosen as they are both facile to grow and transfect, cost effective in terms of media and other reagents, and importantly have retained a functional p53 gene.
Cells were then allowed to recover for one additional day, after which viability was cells were incubated with resazurin (Millipore Sigma) for 4 hours, after which fluorescence was quantified by a plate reader (Perkin Elmer).
Unless otherwise noted, adherent cells (A549 or H1299) were seeded in 96 well plates and grown in either 50/50 F-12/DMEM or RPMI-1640 respectively, supplemented with 5% FBS and grown to roughly 70% confluency. Cells were then transfected with either Cal-Phos as described in Chen 2012 or Lipofectamine 3000 (Thermofisher). Fresh media was exchanged the next day and cellular viability was quantified on day 2.
as §1
20 μL of 0.15 mg/mL Resazurin solution was added to cells either plated in 96 well plates for all cell lines, which were then incubated for ˜4 hours at 37° C. Cellular toxicity was quantified using a Tecan SpectraFlour Plus plate reader (Tecan) using a 535/595 filter set. Raw data was then normalized to the mean of the untransfected controls and plotted as described. […] Stats: All two-sided students T-test with unequal variance.

In the next series the test system is HBB amplicon. The series can be described thus: In-vitro exonuclease assay with purified proteins. The conditions noted are these: 30 nM protein, 3 nM HBB amplicon, 37° C., 60 minutes. It is filed as biochemical, human. Here is the method: Reactions were then electrophoresed and visualized on an agarose gel. FIG. 5C illustrates quantification of exonuclease activity. Quantification of exonuclease activity assayed in FIG. 5B. 3 replicates were performed for each reaction and were quantified via FIJI (ImageJ) and then normalized to control amplicon levels.
Reactions were then electrophoresed and visualized on an agarose gel.
DNA was isolated from wildtype K562 cells, and amplified using standard Taq DNA polymerase and HBB-out-F (5′-[…]-3′ (SEQ ID NO: 125)) and HBB-out-R (5′-[…]-3′ (SEQ ID NO: 126)), Tm=56 for 35 cycles, and purified using the Qiagen PCR cleanup kit. […] The samples were then electrophoresed on a standard 1% TAE agarose gel stained with gel green.

Another series concerns endogenous H2B. The experiment in a line: H2B-mNeon knock-in HDR quantification in K562 cells. It is filed as cell-based, human. To be noted: H2B-mNeon RT, genome specific plus RT specific primers.

Entries after “also recorded” stand apart in the source; their conditions may differ.

Procedure for endogenous H2B: After two days, cells were fixed in 4% PFA washed in PBS, then directly imaged, with cells showing nuclear localized fluorescence counted as successful HDR events.
K562 were grown in 24 well plates with RPMI-1640 supplemented with 5% FBS until roughly 70% confluent. At that time cells were either electroporated using the mNeon system (Invitrogen) using optimized settings for K562 cells, or lipofectamine 3000 again following manufactures instructions. Cells were then returned to 24 well plates with fresh media and grown for at least two days before being used in downstream analysis.
After 2 days, cells attached to coverslips coated with 0.01% poly-1-lysine, and were fixed in 4% PFA (Thermofisher) for 15 minutes at RT. After fixation, cells were washed 3× in PBS, mounted in 50% glycerol and imaged on a Nikon Eclipse E600 with standard FITC filters. For quantification, random patches of cells (usually between 8-15 cells per image) were identified via Brightfield, then fluoresce images were taken with constant illumination and exposure time (100%, and 110 ms respectively).

`Cc1ccc(C(=O)Cn2c3c(sc2=N)CCCC3)cc1` [Pifithrin-α]: the “cellular viability over a dilution series” value in the series with A549 cells [1] (10 nM-10 μM Pifithrin-α, A549 cells transfected with Cas9) is listed as “dose dependent response in cellular viability; also recorded: decreasing levels of toxicity with increasing concentrations; also recorded: Dose dependent increases in cellular viability”. For the same compound, the “effect on viability / Cas9 mediated toxicity compared to DMSO” value with A549 cells [1] (10 μM Pifithrin-α, A549 cells transfected with Cas9) is given as “reduces Cas9 mediated cellular toxicity; also recorded: statistically significant (p<0.001) increase in viability; also recorded: increase in cellular viability”. The “effect on viability / toxicity compared to DMSO” value with A549 cells [1] (10 μM Pifithrin-α, A549 cells transfected with Cas9-HR 8) was “does not affect cellular toxicity; also recorded: no significant change in cellular viability; also recorded: no effect”. Moreover, the “increase in cellular viability compared to DMSO” value with A549 cells [1] (10 μM Pifithrin-α, A549 cells transfected with Cas9, two days) was roughly 2 fold.

On to “Cas9-HR 4: hExo1(1-352)-Cas9 fusion of FIG. 1A; E. coli codon optimized vector SEQ ID NO: 67”, for which the cellular toxicity entry in the series on A549 cells [2] (Int-G2 and Int-G3, CalPhos) is “dramatic reduction in cellular toxicity”. Moreover, the “toxicity targeting G-2 rather than G-3” value in the series on A549 cells [2] (Int-G2 vs Int-G3) is “significantly more toxicity”. The “reduction in cellular toxicity compared to Cas9 or Cas9+hExo1” value in the series on A549 cells [2] (targeting HBB-G3) is reported as “greatest reduction”. For the same compound, in the series with HBB amplicon, the “exonuclease activity (reduction of full length HBB amplicon)” value is reported as “did not show Exonuclease activity; also recorded: no significant activity”. The “PCR of 5′ and 3′ knock-in junctions” value with endogenous H2B is reported as “Successful amplification”.
